From patent US11590129B2, “Combination therapy with an antitumor alkaloid” (PHARMA MAR, S.A., priority 2010, dated 2023)
pEC50, pIC50: −log10 of the molar value.

Tests used:
[1] = tested on: RAMOS human lymphoma cell line; assay: cells; settings: Homo sapiens, Ramos, 72 h
[2] = tested on: U-937 human lymphoma cell line; assay: cells; settings: Homo sapiens, U-937, 72 h
[3] = tested on: SW1990 tumors; assay: Human pancreatic tumor xenografts (SW1990) in athymic nude mice, tumor volume % T/C; assay type: in vivo
Experimental: Female athymic nude mice (Harlan Laboratories Models, S.L. (Barcelona, Spain) were utilized for all experiments. Animals were housed in individually ventilated cages, up to ten per cage in a 12-hour light-dark cycle at 21-23° C. and 40-60% humidity. The mice were allowed free access to irradiated standard rodent diet and sterilized water. Animals were acclimated for at least 5 days prior to tumor implantation with a tumor cell suspension.
Each animal was subcutaneously implanted on the right flank, using 26G needle and a 1 cc syringe, with 5×10^6 SW1990 cells, from in vitro passage 12, in 0.05 mL suspension of 50% Matrigel and 50% serum free medium, without antibiotics.
PM01183 was provided in the form of vials of lyophilized PM01183 cake which was reconstituted with water for infusion to a concentration of 0.2 mg/mL. The PM01183 stock solution was further diluted in 5% glucose solution for injection to the dosing formulation concentrations.
Dose level groups were administered either as single agents or in combination.
Comparison of the median tumor volume in the treatment groups (T) to the median tumor volume in the control group (T/C×100%) was used for evaluation of the antitumor efficacy.

[4] = tested on: JURKAT human leukemia cell line; assay: cells; settings: Homo sapiens, Jurkat, 72 h
Experimental: (§1) Additional serial dilutions were prepared in serum-free culture medium to achieve a final 4× concentration. Aliquots of 50 μL of each diluted compound were added per well.
(§2) JURKAT and MOLT-4 were the human leukemia cell lines selected for this assay, which were obtained from the American Type Culture Collection (ATCC).
(§3) Briefly, cells were seeded in 96 well microtiter plates at a density of 50000 cells per well in 150 μL of culture medium and incubated for 4-6 hours in drug-free medium before treatment with vehicle alone or test compounds for 72 hours.
(§4) After incubation, the cytotoxic effect was evaluated using a MTT reduction assay. 50 μL of MTT solution (1 mg/mL) were added to the wells and incubated for 15-17 hours at 37° C. until formazan crystals were formed. After gently removing the culture medium, DMSO was added to dissolve the insoluble purple formazan product into a colored solution. […] Results were expressed as percentage of control cell growth. The EC50 values (half-maximal effective concentration) used for the combination studies were calculated using Prism v5.02 software (GraphPad). EC50 was expressed as molar concentration and represented the mean of at least three independent assays.
(§5) b. In a second set of experiments, concentration-response curves for the agents tested, both alone and in two-drug combination, were performed, using the same methodology described in the previous paragraph.
(§6) Using these starting concentrations, constant serial dilutions were performed to generate the concentration-response curves for each set of drugs, alone and in combination.
(§7) Based on this equation, the term “combination index” (CI) is used as a quantitative measure of the degree of drug interactions. […] CI values were calculated by solving the equation for different values of fa (i.e., for different degrees of cell groth inhibition).
(§8) Data were analyzed using CalcuSyn software (Biosoft, Cambridge, UK). For statistical analysis and graphs Prism software (GraphPad, San Diego, USA) was used. All the results represent the mean of at least three independent experiments.

[5] = tested on: MOLT-4 human leukemia cell line; assay: cells; settings: Homo sapiens, MOLT-4, 72 h
Experimental: as §1, §2, §3, §4, §5, §6, §7, §8

[6] = tested on: HT-29 human colon adenocarcinoma cell line; assay: cells; settings: Homo sapiens, HT-29, 72 h
Summary of the method: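 HT-29 cells (5,000/well) were attached for 24 h, then exposed to vehicle or compounds for 72 h. Viability was read by MTT reduction, with 8 h MTT at 37° C and formazan dissolved in DMSO. Values are % of control cell growth.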

[7] = tested on: SK-MEL-2 human melanoma cell line; assay: cells; settings: Homo sapiens, SK-MEL-2, 72 h
Summary of the method: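 SK-MEL-2 melanoma cells (5,000/well) grown 24 h drug-free, then exposed 72 h to vehicle or test compounds. Viability by MTT reduction (8 h, 37 °C), formazan dissolved in DMSO; results expressed as percentage of control cell growth.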

[8] = PM01183 0.045 mg/kg iv days 0,7,14
[9] = PM01183 0.09 mg/kg iv days 0,7,14
[10] = PM01183 0.135 mg/kg iv days 0,7,14
[11] = PM01183 0.18 mg/kg iv days 0,7,14

COc1ccc2[nH]c3c(c2c1)CCN[C@]31CS[C@@H]2c3c(OC(C)=O)c(C)c4c(c3[C@H](COC1=O)N1[C@@H]2[C@H]2c3c(cc(C)c(OC)c3O)C[C@@H]([C@@H]1O)N2C)OCO4 [PM01183]
pEC50 [1]: 8.86
pEC50 [2]: 8.99
% T/C on day 0 [3, 8]: 100.2%
% T/C on day 3 [3, 8]: 83.6%
% T/C on day 6 [3, 8]: 82.8%
% T/C on day 8 [3, 8]: 93.3%
% T/C on day 10 [3, 8]: 82.9%
% T/C on day 13 [3, 8]: 88.1%
% T/C on day 15 [3, 8]: 92.6%
% T/C on day 17 [3, 8]: 86.5%
% T/C on day 20 [3, 8]: 85.1%
% T/C on day 22 [3, 8]: 84.5%
% T/C on day 24 [3, 8]: 85.8%
% T/C on day 28 [3, 8]: 85.4%
% T/C on day 0 [3, 9]: 101.1%
% T/C on day 3 [3, 9]: 81.5%
% T/C on day 6 [3, 9]: 72.8%
% T/C on day 8 [3, 9]: 68.7%
% T/C on day 10 [3, 9]: 68.4%
% T/C on day 13 [3, 9]: 74.4%
% T/C on day 15 [3, 9]: 74.7%
% T/C on day 17 [3, 9]: 80.7%
% T/C on day 20 [3, 9]: 71.9%
% T/C on day 22 [3, 9]: 75.4%
% T/C on day 24 [3, 9]: 77.3%
% T/C on day 28 [3, 9]: 63.9%
% T/C on day 0 [3, 10]: 99.6%
% T/C on day 3 [3, 10]: 81.3%
% T/C on day 6 [3, 10]: 71.0%
% T/C on day 8 [3, 10]: 73.1%
% T/C on day 10 [3, 10]: 65.6%
% T/C on day 13 [3, 10]: 63.1%
% T/C on day 15 [3, 10]: 56.3%
% T/C on day 17 [3, 10]: 56.7%
% T/C on day 20 [3, 10]: 56.9%
% T/C on day 22 [3, 10]: 56.5%
% T/C on day 24 [3, 10]: 53.0%
% T/C on day 28 [3, 10]: 51.7%
% T/C on day 0 [3, 11]: 100.0%
% T/C on day 3 [3, 11]: 74.3%
% T/C on day 6 [3, 11]: 61.3%
% T/C on day 8 [3, 11]: 59.4%
% T/C on day 10 [3, 11]: 56.7%
% T/C on day 13 [3, 11]: 56.1%
% T/C on day 15 [3, 11]: 53.2%
% T/C on day 17 [3, 11]: 47.8%
% T/C on day 20 [3, 11]: 44.2%
% T/C on day 22 [3, 11]: 45.3%
% T/C on day 24 [3, 11]: 44.8%
% T/C on day 28 [3, 11]: 38.9%
pEC50 [4]: 8.81
pEC50 [5]: 9.07
pIC50 [6]: 8.43
pIC50 [7]: 8.70
